Tests used:
A-431 = assay: Antiproliferative activity against human A431 cells after 48 hrs by sulforhodamine B assay; assay type: functional, cell-based; details: A-431, 48 h
[1] = Antiangiogenic activity in VEGF-165 and bFGF-stimulated chicken embryo chorioallantoic membrane assessed as inhibition of blood vessel formation after 40 hrs by microscopy; assay type: functional, tissue-based, Gallus gallus
[2] = Induction of microtubule depolymerization in rat A10 cells after 18 hrs by indirect immunofluorescence assay; assay type: cell-based
MDA-MB-435 [3] = assay: Antiproliferative activity against human MDA-MB-435 cells after 48 hrs by sulforhodamine B assay; assay type: functional, cell-based; details: MDA-MB-435, 48 h
[4] = Ratio of EC50 for microtubule depolymerization in rat A10 cells to IC50 for human MDA-MB-435 cells
HeLa [5] = assay: Antiproliferative activity against human HeLa cells after 48 hrs by sulforhodamine B assay; assay type: functional, cell-based
HeLa [6] = assay: Antiproliferative activity against human HeLa cells overexpressing wild type beta3 tubulin after 48 hrs by sulforhodamine B assay; assay type: functional, cell-based
HeLa [7] = assay: Resistance ratio of IC50 for human HeLa cells overexpressing wild type beta3 tubulin to IC50 for human HeLa cells; assay type: functional
[8] = Antiproliferative activity against human SKOV3 cells overexpressing wild type beta3 tubulin after 48 hrs by sulforhodamine B assay; assay type: functional, cell-based; details: SK-OV-3, 48 h
[9] = Antiproliferative activity against human SKOV3-MDR1-M6/6 cells overexpressing wild type beta3 tubulin after 48 hrs by sulforhodamine B assay; assay type: functional, cell-based; details: SKOV3-MDR1-M6/6, 48 h
SK-OV-3 [10] = assay: Resistance ratio of IC50 for human SKOV3-MDR1-M6/6 cells to IC50 for human SKOV3 cells; assay type: functional
[11] = Growth inhibition of human EKVX cells after 48 hrs by sulforhodamine B assay; assay type: functional
HOP-62 = assay: Growth inhibition of human HOP62 cells after 48 hrs by sulforhodamine B assay; assay type: functional; details: HOP-62, 48 h
[12] = Growth inhibition of human HOP92 cells after 48 hrs by sulforhodamine B assay; assay type: functional; details: HOP-92, 48 h
NCI-H226 = assay: Growth inhibition of human NCI-H226 cells after 48 hrs by sulforhodamine B assay; assay type: functional; details: NCI-H226, 48 h
NCI-H23 = assay: Growth inhibition of human NCI-H23 cells after 48 hrs by sulforhodamine B assay; assay type: functional; details: NCI-H23, 48 h
NCI-H460 = assay: Growth inhibition of human NCI-H460 cells after 48 hrs by sulforhodamine B assay; assay type: functional; details: NCI-H460, 48 h
NCI-H522 = assay: Growth inhibition of human NCI-H522 cells after 48 hrs by sulforhodamine B assay; assay type: functional; details: NCI-H522, 48 h
SF-268 = assay: Growth inhibition of human SF268 cells after 48 hrs by sulforhodamine B assay; assay type: functional; details: SF-268, 48 h
[13] = Growth inhibition of human SF295 cells after 48 hrs by sulforhodamine B assay; assay type: functional; details: SF-295, 48 h
[14] = Growth inhibition of human SF539 cells after 48 hrs by sulforhodamine B assay; assay type: functional; details: SF-539, 48 h
SNB-19 = assay: Growth inhibition of human SNB19 cells after 48 hrs by sulforhodamine B assay; assay type: functional; details: SNB-19, 48 h
SNB-75 = assay: Growth inhibition of human SNB75 cells after 48 hrs by sulforhodamine B assay; assay type: functional; details: SNB-75, 48 h
U-251 = assay: Growth inhibition of human U251 cells after 48 hrs by sulforhodamine B assay; assay type: functional; details: U-251, 48 h
IGROV-1 = assay: Growth inhibition of human IGROV1 cells after 48 hrs by sulforhodamine B assay; assay type: functional; details: IGROV-1, 48 h
[15] = Growth inhibition of human OVCAR3 cells after 48 hrs by sulforhodamine B assay; assay type: functional; details: OVCAR-3, 48 h
[16] = Growth inhibition of human OVCAR4 cells after 48 hrs by sulforhodamine B assay; assay type: functional; details: OVCAR-4, 48 h
[17] = Growth inhibition of human OVCAR5 cells after 48 hrs by sulforhodamine B assay; assay type: functional; details: OVCAR-5, 48 h
[18] = Growth inhibition of human OVCAR8 cells after 48 hrs by sulforhodamine B assay; assay type: functional; details: OVCAR-8, 48 h
NCI/ADR-RES = assay: Growth inhibition of human NCI/ADR-RES cells after 48 hrs by sulforhodamine B assay; assay type: functional
SK-OV-3 [19] = assay: Growth inhibition of human SKOV3 cells after 48 hrs by sulforhodamine B assay; assay type: functional; details: SK-OV-3, 48 h
[20] = Growth inhibition of human LOXIMVI cells after 48 hrs by sulforhodamine B assay; assay type: functional; details: LOX IMVI
M14 = assay: Growth inhibition of human M14 cells after 48 hrs by sulforhodamine B assay; assay type: functional; details: M14, 48 h
MDA-MB-435 [21] = assay: Growth inhibition of human MDA-MB-435 cells after 48 hrs by sulforhodamine B assay; assay type: functional; details: MDA-MB-435, 48 h
SK-MEL-2 = assay: Growth inhibition of human SK-MEL-2 cells after 48 hrs by sulforhodamine B assay; assay type: functional; details: SK-MEL-2, 48 h
SK-MEL-5 = assay: Growth inhibition of human SK-MEL-5 cells after 48 hrs by sulforhodamine B assay; assay type: functional; details: SK-MEL-5, 48 h
[22] = Growth inhibition of human UACC62 cells after 48 hrs by sulforhodamine B assay; assay type: functional; details: UACC-62, 48 h
786-0 = assay: Growth inhibition of human 786-0 cells after 48 hrs by sulforhodamine B assay; assay type: functional; details: 786-0, 48 h
ACHN = assay: Growth inhibition of human ACHN cells after 48 hrs by sulforhodamine B assay; assay type: functional
CAKI-1 = assay: Growth inhibition of human Caki1 cells after 48 hrs by sulforhodamine B assay; assay type: functional; details: CAKI-1, 48 h
[23] = Growth inhibition of human RXF393 cells after 48 hrs by sulforhodamine B assay; assay type: functional; details: RXF 393, 48 h
SN12C = assay: Growth inhibition of human SN12C cells after 48 hrs by sulforhodamine B assay; assay type: functional
TK-10 = assay: Growth inhibition of human TK10 cells after 48 hrs by sulforhodamine B assay; assay type: functional; details: TK-10, 48 h
[24] = Growth inhibition of human COLO205 cells after 48 hrs by sulforhodamine B assay; assay type: functional; details: COLO 205, 48 h
[25] = Growth inhibition of human HCT116 cells after 48 hrs by sulforhodamine B assay; assay type: functional; details: HCT-116, 48 h
[26] = Growth inhibition of human HCT15 cells after 48 hrs by sulforhodamine B assay; assay type: functional; details: HCT-15, 48 h
HT-29 = assay: Growth inhibition of human HT-29 cells after 48 hrs by sulforhodamine B assay; assay type: functional; details: HT-29, 48 h
KM12 = assay: Growth inhibition of human KM12 cells after 48 hrs by sulforhodamine B assay; assay type: functional; details: KM12, 48 h
SW-620 = assay: Growth inhibition of human SW620 cells after 48 hrs by sulforhodamine B assay; assay type: functional; details: SW-620, 48 h
[27] = Growth inhibition of human PC3 cells after 48 hrs by sulforhodamine B assay; assay type: functional; details: PC-3, 48 h
DU-145 = assay: Growth inhibition of human DU145 cells after 48 hrs by sulforhodamine B assay; assay type: functional; details: DU-145, 48 h
MCF7 = assay: Growth inhibition of human MCF7 cells after 48 hrs by sulforhodamine B assay; assay type: functional; details: MCF7, 48 h
MDA-MB-231 = assay: Growth inhibition of human MDA-MB-231 cells after 48 hrs by sulforhodamine B assay; assay type: functional; details: MDA-MB-231, 48 h
[28] = Growth inhibition of human Hs 578T cells after 48 hrs by sulforhodamine B assay; assay type: functional
[29] = Growth inhibition of human BT549 cells after 48 hrs by sulforhodamine B assay; assay type: functional; details: BT-549, 48 h
MDA-MB-468 = assay: Growth inhibition of human MDA-MB-468 cells after 48 hrs by sulforhodamine B assay; assay type: functional; details: MDA-MB-468, 48 h
CCRF-CEM = assay: Growth inhibition of human CCRF-CEM cells after 48 hrs by sulforhodamine B assay; assay type: functional
HL-60(TB) = assay: Growth inhibition of human HL-60(TB) cells after 48 hrs by sulforhodamine B assay; assay type: functional; details: HL-60, 48 h
K562 = assay: Growth inhibition of human K562 cells after 48 hrs by sulforhodamine B assay; assay type: functional; details: K562, 48 h
[30] = Growth inhibition of human MOLT4 cells after 48 hrs by sulforhodamine B assay; assay type: functional; details: MOLT-4, 48 h
[31] = Growth inhibition of human […] cells after 48 hrs by sulforhodamine B assay; assay type: functional
SR = assay: Growth inhibition of human SR cells after 48 hrs by sulforhodamine B assay; assay type: functional

## Cc1nc(N(C)c2ccc3c(c2)CCO3)c2cc(C)oc2n1
A-431
  IC50: 38.3 nM
[1]
  IC50: 14000 nM
[2]
  EC50: 606 nM
MDA-MB-435 [3]
  IC50: 96.2 nM
[4]
  Ratio: 6
HeLa [5]
  IC50: 105 nM
HeLa [6]
  IC50: 94 nM
HeLa [7]
  Ratio IC50: 0.9
[8]
  IC50: 120 nM
[9]
  IC50: 155 nM
SK-OV-3 [10]
  Ratio IC50: 1.3
[11]
  GI50: 70 nM
HOP-62
  GI50: 39.6 nM
[12]
  GI50: 45.8 nM
NCI-H226
  GI50: 162 nM
NCI-H23
  GI50: 43.9 nM
NCI-H460
  GI50: 42 nM
NCI-H522
  GI50: 12.9 nM
SF-268
  GI50: 13.9 nM
[13]
  GI50: 30.5 nM
[14]
  GI50: 31.6 nM
SNB-19
  GI50: 56.5 nM
SNB-75
  GI50: 30.4 nM
U-251
  GI50: 39.7 nM
IGROV-1
  GI50: 62.9 nM
[15]
  GI50: 24.5 nM
[16]
  GI50: 83.4 nM
[17]
  GI50: 262 nM
[18]
  GI50: 63 nM
NCI/ADR-RES
  GI50: 26.5 nM
SK-OV-3 [19]
  GI50: 37.6 nM
[20]
  GI50: 45.6 nM
M14
  GI50: 34.8 nM
MDA-MB-435 [21]
  GI50: 14 nM
SK-MEL-2
  GI50: 26.4 nM
SK-MEL-5
  GI50: 31.4 nM
[22]
  GI50: 61.3 nM
786-0
  GI50: 80.4 nM
ACHN
  GI50: 64.2 nM
CAKI-1
  GI50: 40.1 nM
[23]
  GI50: 21.2 nM
SN12C
  GI50: 97.2 nM
TK-10
  GI50: 50.2 nM
[24]
  GI50: 40.3 nM
[25]
  GI50: 45.1 nM
[26]
  GI50: 38.9 nM
HT-29
  GI50: 32.4 nM
KM12
  GI50: 40.1 nM
SW-620
  GI50: 41.6 nM
[27]
  GI50: 52.2 nM
DU-145
  GI50: 44.1 nM
MCF7
  GI50: 40.2 nM
MDA-MB-231
  GI50: 148 nM
[28]
  GI50: 31 nM
[29]
  GI50: 77.2 nM
MDA-MB-468
  GI50: 22.1 nM
CCRF-CEM
  GI50: 58.1 nM
HL-60(TB)
  GI50: 27.6 nM
K562
  GI50: 31.7 nM
[30]
  GI50: 76.7 nM
[31]
  GI50: 54.2 nM
SR
  GI50: 36.6 nM

## COc1cc(N(C)c2nc(C)nc3oc(C)cc23)cc(OC)c1OC
A-431
  IC50: > 300 nM
[1]
  IC50: > 300000 nM
[2]
  EC50: > 10000 nM

## COc1ccc2c(ccn2-c2nc(C)nc3oc(C)cc23)c1
A-431
  IC50: > 300 nM
[1]
  IC50: > 300000 nM
[2]
  EC50: > 10000 nM

From ChEMBL document CHEMBL3400114, “The design, synthesis and biological evaluation of conformationally restricted 4-substituted-2,6-dimethylfuro[2,3-d]pyrimidines as multi-targeted receptor tyrosine kinase and microtubule inhibitors as potential antitumor agents” (Bioorg Med Chem, 2015)
